# Source: patent US10030260B2, “Inducible reconstitution and real-time quantitative kinetic system for the study of intramembrane enzymes” (THE JOHNS HOPKINS UNIVERSITY, priority 2012, dated 2018)
# Where a chain is given by its changes, count along the chain named. Entries after “also recorded” stand apart in the source; their conditions may differ. Where a SMILES comes first, the peptide text is derived from it. The star is where a group is joined. FITC = O=C1OC2(c3ccc(O)cc3Oc3cc(O)ccc32)c2ccc(NC(=S)*)cc21; βAla = NCCC(=O)O
# Key:
# E. coli GlpG = molecular target: T1, E. coli GlpG (Escherichia coli, UniProt P09391); assay: Inducible reconstitution and real-time proteolysis assay in proteoliposomes; format: biochemical
# T1 construct: GST (cleaved yes); made in house; host or cells: E. coli C43 (DE3)
# T1 sequence (P09391 whole entry): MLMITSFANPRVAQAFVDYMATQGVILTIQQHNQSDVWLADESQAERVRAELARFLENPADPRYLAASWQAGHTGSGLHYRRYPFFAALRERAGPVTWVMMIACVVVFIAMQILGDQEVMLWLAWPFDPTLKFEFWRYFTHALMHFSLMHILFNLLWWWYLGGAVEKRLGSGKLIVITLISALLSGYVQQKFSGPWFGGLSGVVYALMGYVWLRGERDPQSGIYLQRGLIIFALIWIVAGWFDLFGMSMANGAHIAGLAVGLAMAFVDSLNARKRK
# Protocol: (§1) 30 μg of E. coli liposomes were mixed with 50 mM NaAcetate pH 4.0, 150 mM NaCl, 0.05 to 500 pmoles of rhomboid enzyme, and 20 to 1600 pmoles of FITC-substrate. This co-reconstitution mix was diluted 20-fold with 12.5 mM NaAcetate pH 4.0, 37.5 mM NaCl to reduce detergent below its critical micelle concentration and promote reconstitution. Proteoliposomes were collected by ultracentrifugation at 600,000 g for 20 minutes in an Optima MAX-XP ultracentrifuge (Beckman). […] Fluorescence was monitored every minute using monochromators set to wavelengths of 485±20 nm (excitation) and 528±20 nm (emission). Alternatively, time points were quenched with equal volumes of 2× Tricine SDS-sample buffer, resolved on 16% Tricine gels (Life Technologies), and imaged with a blue laser and fluorescein emission filters on a Typhoon Imager (GE Healthcare). APP+Spi7-Flag and HA-EcGlpG were co-reconstituted as above, resolved by SDS-PAGE, detected by 2-color anti-Flag and anti-HA western analysis, and imaged with an Odyssey infrared scanner (LiCor Biosciences).
# All data were analyzed and graphed using the R language and environment. Initial rates were extracted from real-time curves between 4 and 14 minutes using the slope (m) in a linear model: y=mx+b. Initial rates versus substrate concentration of reconstituted reactions were modeled using the Hill-modified Michaelis Menten equation: v0=(Vmax*[S0]^h)/(Km^h+[S0]^h). […]
# To establish controlled conditions for a Michaelis-Menten kinetic system, we lowered GlpG levels to 4 pmoles while varying substrate from 20 to 1600 pmoles and co-reconstituted both into 200 nm proteoliposomes comprised of E. coli lipids to preserve its physiological environment as much as possible (FIG. 9A). […] Finally, FITC-TatA reconstituted in both orientations in approximately equal proportions, as quantified by reacting single engineered cysteines with membrane-impermeable dyes (FIG. 3A). […]
# [1] = molecular target: T2, catalytically inactive TMR-GlpG (C104A+W196TMR+H254A) (Escherichia coli, UniProt P09391, C104A/H254A/W196C); assay: FRET analysis of protease-substrate affinity in membranes; format: binding; settings: in proteoliposomes
# T2 construct: His (N); TMR (tetramethylrhodamine-5-maleimide) dye on the side chain of Cys196; made in house
# T2 sequence (P09391 1-276 C104A/W196C/H254A): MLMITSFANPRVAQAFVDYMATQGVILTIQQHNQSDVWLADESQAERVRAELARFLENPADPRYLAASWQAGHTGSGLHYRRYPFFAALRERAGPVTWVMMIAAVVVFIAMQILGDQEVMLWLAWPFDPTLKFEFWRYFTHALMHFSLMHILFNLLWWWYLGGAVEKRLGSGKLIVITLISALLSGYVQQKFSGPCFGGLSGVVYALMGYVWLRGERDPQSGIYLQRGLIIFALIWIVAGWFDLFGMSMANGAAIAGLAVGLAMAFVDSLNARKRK
# Protocol: Purified N-terminally His-tagged EcGlpG H254A+C104A+W196C protein was labeled at the single cysteine residue with the FRET acceptor tetramethylrhodamine-5-maleimide (TMR) (Life Technologies). Reconstitutions into E. coli liposomes were performed as described above, except that 30 pmoles of TMR-labeled protein was mixed with 25-800 pmoles of the FITC-TatA ligand. Following reconstitution, the samples were incubated at 37° C. in a Synergy H4 Hybrid plate reader. Fluorescence was measured with excitation at 485 nm and emission from 510-600 nm in 5 nm intervals. The FRET interaction was calculated at the 580 nm emission wavelength by subtracting the TMR-labeled GlpG protein alone and the FITC-TatA alone samples from the sample containing both macromolecules.
# HA-EcGlpG = molecular target: T3, HA-EcGlpG (Escherichia coli, UniProt P09391); assay: Proteolysis assay in detergent micelles; format: biochemical; settings: faster in detergent
# T3 construct: GST (cleaved yes); made in house; host or cells: E. coli C43 (DE3)
# T3 sequence (P09391 1-276): T2 sequence (P09391 1-276 C104A/W196C/H254A) with A104C, C196W, A254H
# Protocol: Cleavage reactions of APP+Spi7-Flag were performed as described previously and imaged with an Odyssey infrared scanner (LiCor Biosciences) (Baker and Urban, 2012; Baker et al., 2007). […] Reactions were quenched and analyzed on 16% tricine gels as above. Actual substrate concentrations were calibrated using FITC-TatA standards analyzed in parallel.
# [2] = molecular target: T4, inactive EcGlpG mutants (His-EcGlpG C104A+H254A; HA-EcGlpG S201A+H254A) (Escherichia coli, UniProt P09391, C104A/H254A); format: binding; settings: co-precipitation
# T4 construct: made in house
# T4 sequence (P09391 whole entry C104A/H254A): as the sequence (P09391 whole entry) above, with C104A, H254A counted along it
# Protocol: (§2) 2.5 μM His-tagged EcGlpG C104A+H254A with 70 μM FITC-TatA was incubated with pre-equilibrated Ni^2+-NTA resin (Qiagen) for 3 hours at room temperature. The resin was washed, and bound proteins were eluted with SDS-sample buffer for 30 minutes. FITC-TatA was detected as above using a 16% Tricine gel and a Typhoon Imager. His-EcGlpG C104A+H254A was detected by western blot with the mouse anti-penta-His antibody (Qiagen), and imaged with an Odyssey infrared scanner (LiCor Biosciences).
# (§3) Two Superdex 200 PC 3.2/30 high-resolution gel filtration columns (GE Healthcare) were connected in tandem to a ProStar 410 HPLC system (Agilent/Varian), and equilibrated with 9.5 μM FITC-TatA in 2 mM phosphate buffer pH 7.4, 25 mM Tris pH 7.4, 120 mM NaCl, 0.15% Sarkosyl, 0.1% DDM, 1 mM DTT. 20 μM HA-EcGlpG S201A+H254A was preincubated with 9.5 μM FITC-TatA, and 50 μL was injected using an Autosampler 410 onto the columns at a flow rate of 0.05 mL/minute. Elution was monitored by absorbance at all wavelengths between 200 to 600 nm simultaneously using a PDA 330 detector. The FITC-TatA peak was quantified relative to known FITC-TatA concentration standards that were run on the columns equilibrated with 9.5 μM FITC alone in buffer. Conventional gel filtration was conducted under similar conditions, except the columns were equilibrated with buffer lacking FITC-TatA.
# [3] = molecular target: inactive EcGlpG mutants (His-EcGlpG C104A+H254A; HA-EcGlpG S201A+H254A); format: binding, Escherichia coli; settings: gel filtration and co-precipitation, non-equilibrium; read-out: Kd (low affinity)
# Protocol: as §2, §3
# EcGlpG = EcGlpG (Escherichia coli, UniProt P09391); settings: 37° C. for 3 hours
# Sequence of EcGlpG (P09391 whole entry): as the sequence (P09391 whole entry) above
# Protocol: Rhomboid protein in 50 mM Tris pH 7.4, 150 mM NaCl, 0.1% DDM was incubated with either 10% DMSO only or carrying […] JLK6 at 37° C. for 3 hours, purified using a C4 ZipTip, and analyzed by mass spectrometry as described previously (Pierrat et al., 2011).
# [4] = tested on: three different rhomboid proteases; assay: Manual 384-well compound screen in proteoliposomes; format: biochemical; settings: 1 hour at 37° C., no compound pre-incubation
# Protocol: FIG. 12. Assay Evaluation in Manual Compound Screens. […] B. We assayed 3 different rhomboid proteases independently in hand-pipetted 384-well screens against a custom-assembled library of protease inhibitors, combinatorial compounds, and membrane enzyme inhibitors (all in DMSO). Assays were conducted for 1 hour at 37° C. and fluorescence intensity was read every 2 minutes. Graphed are the 60 minute values, with the last (rightmost) 7 wells being the isocoumarin inhibition controls.
# An important consideration is assay suitability for HTS, which we evaluated by manually screening a diverse panel of class-specific protease inhibitors (natural products, sulphonyl fluorides, hydroxamate-based metalloprotease inhibitors, vinyl sulfones, isocoumarins, chloromethyl ketones, proteasomal inhibitors, aspartyl protease inhibitors, cysteine protease inhibitors), a combinatorial library of peptide diphenyl-phosphonates, and over a dozen lipid enzyme inhibitors/drugs (some of which are known to affect other intramembrane proteases). We hand-assembled this library of 111 compounds because it represents likely candidates for real rhomboid inhibitors on the one hand, and on the other poses challenges for assay performance because most are chemically-reactive (warhead) molecules. […]
# HA-PsAarA = molecular target: T5, HA-PsAarA (Providencia stuartii, UniProt P46116); assay: Real-time kinetics of substrate variants in proteoliposomes; format: biochemical; settings: in words
# T5 construct: GST (cleaved yes); made in house; host or cells: E. coli C43 (DE3)
# T5 sequence (P46116 whole entry, looked up): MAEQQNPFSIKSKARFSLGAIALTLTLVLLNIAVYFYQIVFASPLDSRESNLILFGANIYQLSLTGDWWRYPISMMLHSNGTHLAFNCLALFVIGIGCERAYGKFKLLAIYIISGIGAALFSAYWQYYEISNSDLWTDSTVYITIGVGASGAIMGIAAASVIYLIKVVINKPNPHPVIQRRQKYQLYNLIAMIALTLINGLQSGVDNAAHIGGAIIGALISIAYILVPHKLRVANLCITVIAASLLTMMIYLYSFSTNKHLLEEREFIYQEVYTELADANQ
# Protocol: as §1
# All data were analyzed and graphed using the R language and environment. Initial rates were extracted from real-time curves between 4 and 14 minutes using the slope (m) in a linear model: y=mx+b. […]
compound,measurement,setting,value
CC[C@H](C)[C@H](NC(=O)[C@H](CC(C)C)NC(=O)[C@@H](NC(=O)[C@@H](NC(=O)[C@H](CC(C)C)NC(=O)[C@H](CC(C)C)NC(=O)[C@H](C)NC(=O)[C@@H](NC(=O)[C@@H](NC(=O)[C@@H](NC(=O)[C@H](CC(C)C)NC(=O)[C@H](CCC(N)=O)NC(=O)[C@H](Cc1c[nH]c2ccccc12)NC(=O)[C@@H]1CCCN1C(=O)[C@H](CO)NC(=O)CNC(=O)[C@H](Cc1ccccc1)NC(=O)[C@H](C)NC(=O)[C@H](C)NC(=O)[C@@H](NC(=O)[C@H](C)NC(=O)[C@@H](NC(=O)[C@@H](NC(=O)[C@H](CO)NC(=O)[C@H](CCC(=O)O)NC(=O)[C@H](CCSC)NC(=O)CCNC(=S)Nc1ccc2c(c1)C(=O)OC21c2ccc(O)cc2Oc2cc(O)ccc21)[C@@H](C)O)[C@@H](C)CC)[C@@H](C)O)[C@@H](C)CC)[C@@H](C)CC)[C@@H](C)CC)[C@@H](C)CC)[C@@H](C)CC)C(=O)N[C@@H](Cc1ccccc1)C(=O)NCC(=O)N[C@H](C(=O)N[C@@H](CCCCN)C(=O)N[C@@H](CCCCN)C(=O)N[C@@H](CC(C)C)C(=O)N[C@@H](CCCNC(=N)N)C(N)=O)[C@@H](C)O [FITC-TatA] ({FITC-βAla}-MESTIATAAFGSPWQLIIIALLIILIFGTKKLR-NH2),KM,"E. coli GlpG; proteoliposomes of E. coli lipids, relative to phospholipid",0.14±0.02 mole percent
same,kcat,"E. coli GlpG; proteoliposomes, enzyme saturated with substrate",0.0063 ± 0.00021 s⁻¹
same,apparent Kd,[1],0.08±0.026 mole percent
same,kcat in detergent relative to proteoliposomes,HA-EcGlpG,~6.5 fold
same,FITC-TatA eluting with His-EcGlpG,[2],< 0.1%
same,Kd,[3],> 800 µM
"COc1oc(=O)c2cc(N)ccc2c1Cl [JLK6, reference compound]",effect on fluorescence signal and cleavage product of FITC-TatA cleavage,"E. coli GlpG; proteoliposomes, 37° C., pretreatment with inhibitor",blocked generation of the fluorescence signal and cleavage product; also recorded: abrogated signal to background
same,mass shift of enzyme after incubation with inhibitor,EcGlpG,complete mass shift
O=c1occc2ccccc12 [isocoumarin],inhibition in screen,[4],obvious evidence of inhibition of all three rhomboid proteases
"Spitz: Drosophila signaling molecule Spitz residues 135-168 of 186, FITC-labelled substrate",kcat and KM relative to TatA,HA-PsAarA,lower kcat without any significant change in KM
